Among the test systems are HCT-116 colon; OVCAR-3 ovarian; HOP-62 NSCLC; SK-MEL-28 melanoma; NCI-H522 lung; MOLT-4 leukemia; NCI-H23 lung; A549 NSCLC; SK-MEL-2 melanoma; TK-10 renal; HOP-92 NSCLC.
Assay in all cases: DTP human tumour cell line panel, 48 h

Each structure is given as a SMILES string.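 All cell lines were grown in 96-well plates and treated with compound for 48 hours. TGI denotes the concentration required for complete inhibition of growth.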

Take `OCCCCCNc1c2ccccc2nc2ccccc12`: the TGI – broadly, the concentration giving total growth inhibition – in the experiment with HCT-116 colon is 21.1 µM; in the experiment on OVCAR-3 ovarian, more than 28.8 µM; in the experiment on HOP-62 NSCLC, 6.68 µM; in the experiment on SK-MEL-28 melanoma, 16.9 µM; in the experiment on NCI-H522 lung, 10.2 µM; with MOLT-4 leukemia, more than 63.3 µM. The TGI in the experiment on NCI-H23 lung is 5.47 µM; in the experiment with A549 NSCLC it was more than 29.7 µM; with SK-MEL-2 melanoma it was 7.43 µM; in the experiment with TK-10 renal, 20.3 µM.
`O=C(CN1c2ccccc2Sc2ccccc21)N1CCNCC1`: the total growth inhibition concentration (TGI) with HCT-116 colon, in the experiment on OVCAR-3 ovarian, in the experiment on HOP-62 NSCLC, in the experiment with SK-MEL-28 melanoma, in the experiment with MOLT-4 leukemia and with NCI-H23 lung was more than 100 µM in each case. In addition, the TGI in the experiment on A549 NSCLC, with SK-MEL-2 melanoma, with TK-10 renal and with HOP-92 NSCLC was more than 100 µM throughout.
As for `COc1cc2c(cc1OC)C1=Cc3cc(OC)c(OC)cc3C(C)N1C=C2` (stereo not given), the TGI in the experiment with HCT-116 colon, in the experiment with OVCAR-3 ovarian, in the experiment on HOP-62 NSCLC, with SK-MEL-28 melanoma, in the experiment on MOLT-4 leukemia and in the experiment on NCI-H23 lung was more than 100 µM throughout. Also, the TGI with A549 NSCLC, with TK-10 renal and in the experiment with HOP-92 NSCLC was more than 100 µM each time.
On to `COc1ccc(C(C#N)NNC(=O)c2ccccc2O)cc1OC` (stereo not given), for which the concentration for total growth inhibition (TGI) with HCT-116 colon was more than 100 µM; with OVCAR-3 ovarian it was more than 100 µM; with HOP-62 NSCLC it was more than 100 µM; with SK-MEL-28 melanoma, more than 100 µM; in the experiment on NCI-H522 lung it was 30.1 µM; in the experiment on MOLT-4 leukemia it was more than 100 µM. For the same molecule, the concentration for total growth inhibition (TGI) was 28.4 µM in the experiment with NCI-H23 lung, more than 100 µM in the experiment on A549 NSCLC, 78.2 µM in the experiment with SK-MEL-2 melanoma and more than 100 µM in the experiment with TK-10 renal.
Consider `COc1ccc(N2C(=O)C3c4[nH]c5ccc(OCc6ccccc6)cc5c4C4CCC(C(C)(C)C)CC4C3C2=O)cc1` (stereo not given), for which the TGI in the experiment with HCT-116 colon, in the experiment on OVCAR-3 ovarian, with HOP-62 NSCLC, in the experiment with SK-MEL-28 melanoma, in the experiment with NCI-H522 lung and in the experiment on MOLT-4 leukemia was more than 100 µM each time. In addition, the TGI in the experiment with NCI-H23 lung, in the experiment with A549 NSCLC, in the experiment with SK-MEL-2 melanoma and in the experiment with TK-10 renal was more than 100 µM each time.
Turning to `COc1ccccc1N/C(=C\C(=O)C(=O)NC12CC3CC(CC(C3)C1)C2)c1ccccc1`, the TGI with OVCAR-3 ovarian, with HOP-62 NSCLC, in the experiment with SK-MEL-28 melanoma, with NCI-H522 lung, with MOLT-4 leukemia and in the experiment on NCI-H23 lung was more than 10 µM in each case. Further, the total growth inhibition concentration (TGI) in the experiment with SK-MEL-2 melanoma and with TK-10 renal was more than 10 µM each time.
Consider `NC(C(F)(F)F)(C(F)(F)F)P(=O)(Cc1ccccc1)Cc1ccccc1`, for which the TGI with HCT-116 colon, with OVCAR-3 ovarian, in the experiment with HOP-62 NSCLC, in the experiment with SK-MEL-28 melanoma, in the experiment on MOLT-4 leukemia and in the experiment with NCI-H23 lung was more than 100 µM each time. Moreover, the TGI in the experiment on A549 NSCLC, in the experiment with SK-MEL-2 melanoma and in the experiment on TK-10 renal was more than 100 µM in each case.
For the molecule `CN(C)/N=N/c1nc2c(c(=O)n(C)c(=O)n2C)n1C`, the TGI with HCT-116 colon, in the experiment with OVCAR-3 ovarian, in the experiment on HOP-62 NSCLC, in the experiment with SK-MEL-28 melanoma, in the experiment with NCI-H522 lung and with MOLT-4 leukemia was more than 100 µM throughout. Further, the TGI in the experiment on A549 NSCLC, in the experiment with SK-MEL-2 melanoma and in the experiment with TK-10 renal was more than 100 µM each time.
As for `COC(=O)C(CCC#N)(CCC#N)C(=O)OC`, the concentration for total growth inhibition (TGI) in the experiment on HCT-116 colon, with OVCAR-3 ovarian, in the experiment with HOP-62 NSCLC, with SK-MEL-28 melanoma, in the experiment with NCI-H522 lung and in the experiment with MOLT-4 leukemia was more than 100 µM throughout. Besides, the TGI with NCI-H23 lung and in the experiment with A549 NSCLC was more than 100 µM each time.
In the case of `Nc1nc2cc3nc(N)c(N)nc3cc2nc1N`, the total growth inhibition concentration (TGI) with HCT-116 colon, with OVCAR-3 ovarian, in the experiment with SK-MEL-28 melanoma, in the experiment with NCI-H522 lung, with MOLT-4 leukemia and with NCI-H23 lung was more than 100 µM throughout. Also, the TGI in the experiment with A549 NSCLC, in the experiment with SK-MEL-2 melanoma and with TK-10 renal was more than 100 µM throughout.
Turning to `NC(=O)N/N=C(\Cc1nc2ccc(Cl)cc2[nH]c1=O)C(=O)Nc1ccc(Cl)cc1Cl`, the TGI in the experiment on HCT-116 colon, with OVCAR-3 ovarian, in the experiment with SK-MEL-28 melanoma, in the experiment on NCI-H522 lung, with MOLT-4 leukemia and with NCI-H23 lung was more than 100 µM in each case. Also, the TGI with A549 NSCLC, with SK-MEL-2 melanoma and with TK-10 renal was more than 100 µM throughout.
Turning to `CC[C@]1(Cc2ccc(OC)c(OC)c2)CN(S(=O)(=O)c2ccc(C)cc2)C[C@@H]1OC(C)=O`, the TGI with OVCAR-3 ovarian, in the experiment on HOP-62 NSCLC, with SK-MEL-28 melanoma, in the experiment with MOLT-4 leukemia, in the experiment on NCI-H23 lung and in the experiment with A549 NSCLC was more than 100 µM each time. In addition, the TGI in the experiment on SK-MEL-2 melanoma, in the experiment on TK-10 renal and in the experiment on HOP-92 NSCLC was more than 100 µM throughout.
As to `c1ccc2c(c1)OC(N1CCCC1)c1cnc(N3CCCC3)nc1-2` (stereo not given), the TGI in the experiment with HCT-116 colon was more than 100 µM; with OVCAR-3 ovarian, 97.5 µM; in the experiment on HOP-62 NSCLC, more than 100 µM; in the experiment on SK-MEL-28 melanoma it was more than 100 µM; with MOLT-4 leukemia it was 70.5 µM; in the experiment with NCI-H23 lung, more than 100 µM. The concentration for total growth inhibition (TGI) with A549 NSCLC was more than 100 µM; with TK-10 renal, more than 100 µM; in the experiment with HOP-92 NSCLC, 47.3 µM.
On to `Cc1nc(-c2ccc([N+](=O)[O-])cc2)cn2c1nc1ccccc12`, for which the TGI in the experiment on HCT-116 colon, in the experiment on OVCAR-3 ovarian, with HOP-62 NSCLC, with SK-MEL-28 melanoma, in the experiment with MOLT-4 leukemia and in the experiment with NCI-H23 lung was more than 100 µM in each case. In addition, the TGI with A549 NSCLC was more than 100 µM; in the experiment with SK-MEL-2 melanoma it was 69.2 µM; in the experiment on TK-10 renal it was more than 100 µM; with HOP-92 NSCLC, more than 100 µM.
Turning to `CCCCCCCCCCCCCCCCCCNc1ccn(C2OC(COP(=O)(O)OCC3OC(n4ccc(NC(=O)CCCCCCCCCCCCCCCCC)nc4=O)C(OC(C)=O)C3OC(C)=O)C(OC(C)=O)C2OC(C)=O)c(=O)n1` (stereo not given), the TGI in the experiment on HCT-116 colon, in the experiment on OVCAR-3 ovarian, with HOP-62 NSCLC, in the experiment on SK-MEL-28 melanoma, in the experiment on NCI-H522 lung and in the experiment on MOLT-4 leukemia was more than 100 µM each time. The total growth inhibition concentration (TGI) in the experiment with NCI-H23 lung, in the experiment with A549 NSCLC, with SK-MEL-2 melanoma and with TK-10 renal was more than 100 µM throughout.
On to `Cc1cc(N(CCC#N)CCC#N)ccc1/C=N/NC(=O)c1cc(Cl)ccc1O`, for which the TGI in the experiment on HCT-116 colon, in the experiment on OVCAR-3 ovarian, in the experiment with HOP-62 NSCLC, with NCI-H522 lung, in the experiment on MOLT-4 leukemia and with NCI-H23 lung was more than 100 µM each time. The TGI with A549 NSCLC, with SK-MEL-2 melanoma and with TK-10 renal was more than 100 µM each time.
As to `CC(C)c1ccc2[nH]c(O)c(-c3[nH]c4ccccc4c3N=O)c2c1`, the TGI in the experiment with HCT-116 colon was 14 µM; in the experiment on OVCAR-3 ovarian, 20.7 µM; in the experiment on HOP-62 NSCLC it was 25.2 µM; with SK-MEL-28 melanoma, 26.7 µM; in the experiment on NCI-H522 lung it was 14.6 µM; in the experiment on MOLT-4 leukemia, 15.1 µM. The TGI in the experiment with NCI-H23 lung is 16.1 µM; in the experiment on A549 NSCLC, 22.2 µM; with SK-MEL-2 melanoma, 15.1 µM; with TK-10 renal, 43.4 µM.
Consider `O=C(/C=C/c1ccc(O)c([N+](=O)[O-])c1)CC(=O)/C=C/c1ccc(O)c([N+](=O)[O-])c1`, for which the TGI in the experiment with HCT-116 colon, in the experiment on OVCAR-3 ovarian, in the experiment on HOP-62 NSCLC, in the experiment with SK-MEL-28 melanoma, with NCI-H522 lung and in the experiment with NCI-H23 lung was more than 100 µM each time. Also, the concentration for total growth inhibition (TGI) in the experiment on A549 NSCLC, with SK-MEL-2 melanoma and in the experiment with TK-10 renal was more than 100 µM each time.
`CC(C)=CCOC(=O)C(C)=[N+]=[N-]`: the TGI with HCT-116 colon, with OVCAR-3 ovarian, in the experiment on HOP-62 NSCLC, with SK-MEL-28 melanoma, in the experiment with NCI-H522 lung and in the experiment on MOLT-4 leukemia was more than 100 µM throughout. For the same molecule, the concentration for total growth inhibition (TGI) in the experiment on NCI-H23 lung and with TK-10 renal was more than 100 µM throughout.
For the molecule `CCN1CC2=C(NC(=S)NC2c2ccc(Cl)cc2)/C(=C/c2ccc(Cl)cc2)C1` (stereo not given), the TGI in the experiment with HCT-116 colon is more than 100 µM; in the experiment with OVCAR-3 ovarian it was more than 100 µM; in the experiment with HOP-62 NSCLC, more than 100 µM; in the experiment with SK-MEL-28 melanoma, more than 100 µM; in the experiment on NCI-H522 lung, more than 100 µM; in the experiment with MOLT-4 leukemia, 79.2 µM. The concentration for total growth inhibition (TGI) with NCI-H23 lung, with A549 NSCLC, in the experiment on SK-MEL-2 melanoma and in the experiment with TK-10 renal was more than 100 µM in each case.
Turning to `CCCCN1C(=O)CC2[C@@H]3CCc4cc(OC(C)=O)ccc4C3CC[C@]2(C)C1=O` (stereo not given in full), the TGI in the experiment on HCT-116 colon, in the experiment with OVCAR-3 ovarian, with HOP-62 NSCLC, in the experiment on SK-MEL-28 melanoma, in the experiment with MOLT-4 leukemia and with NCI-H23 lung was more than 10 µM throughout. In addition, the TGI with A549 NSCLC, with SK-MEL-2 melanoma, with TK-10 renal and in the experiment on HOP-92 NSCLC was more than 10 µM each time.

The record behind these values is PubChem BioAssay (NCI).
